How the values were obtained:
SIRT1, AMPK and ACC = assay: Western blot of SIRT1, AMPK and ACC in HepG2 cells; format: cell-based
Protocol: (§1) HepG2 hepatocytes were cultured in low glucose Dulbecco's modified Eagle medium (DMEM) (Gibco, Life Technologies, Grand Island, NY, USA) to which 10% FBS (Gibco, Life Technologies, USA), L-glutamine, and 1% penicillin/streptomycin solution were added. The cells were manipulated in a humidified incubator at 37° C. containing 5% CO2 under a sterile condition. The cells were sub-cultured as soon as they reached confluence. The cells were continuously monitored under a bright-field microscope (Nikon Eclipse TS100, Tokyo, Japan), and the medium was replaced every 3 days. For cell viability assays, the cells were seeded and treated with 0 μM-2000 μM camphorquinone (CQ) for 24 hours, then incubated in MTT solution (0.5 mg/ml) for 2 hours, and then formazan crystals were dissolved using dimethyl sulfoxide (DMSO). Cell viability was evaluated using a spectrophotometer (Multiskan FC, Thermo Fisher Scientific).
(§2) Total proteins were extracted with a RIPA lysis buffer system including phenylmethylsulfonyl fluoride (PMSF), sodium orthovanadate (Na3VO4) and protease inhibitor cocktail (Santa Cruz Biotechnology) at 4° C. for 30 minutes, and the extracted sample was centrifuged at 16,000×g for 20 minutes. The concentration of total proteins was quantified using a Pierce BCA Protein Assay Kit (Thermo Fisher Scientific). The proteins (30 to 50 μg) were loaded and separated through sodium dodecyl sulfate-polyacrylamide gel electrophoresis (SDS-PAGE), and then blotted with a PVDF membrane (GE Healthcare, Germany). In order to prevent nonspecific binding of the primary antibodies, the membrane was blocked with TBST including 1% non-fat dry milk for 1 hour and 30 minutes at room temperature (RT). Then, the membrane was incubated overnight at 4° C. together with each primary antibody. The secondary antibodies were conjugated with horseradish peroxidase and visualized with an enhanced chemiluminescence detection kit (GE Healthcare). Analysis of density measurement was performed using Image J software.

[1] = test system: IL1α, IL1β, IL6, p53, TNFα and RAGE; assay: qRT-PCR of inflammatory markers in liver of diabetic mouse model; format: in vivo, C57BL/6 mice; settings: CQ-L, 10 mg/kg/day i.p., vs HFD mouse group
Protocol: 6-week-old male C57BL/6 mice (weight 22±2 g) were purchased from Samtako Bio Korea Co., Ltd. (Osan, Gyeonggi-do, Korea). The mice were maintained at 23 to 25° C. under a 12 h light-dark cycle with free access to food and water in a pathogen-free animal facility center. All animal experiments were approved in accordance with the Chosun University Institutional Animal Care and Use Committee (CIACUC2020-S0009). All animals were fed normal chow pellets (ND, SAM #31, Samtako, Inc.), and went through a period of adjustment for 1 week. During the following week, the animals were randomly classified according to the body weight, and one-third of the animals were classified as normal controls to be fed normal chow pellets throughout the study. […] Blood glucose levels of the animals were measured at the end of week 5, and animals showing a fasting blood glucose level (FBG)≥200 mg/dl were selected for the study. […]
(§3) Total RNA was separated from liver tissue of the mouse model using RNAisoPlus (Takara). Then, total RNA (2.5 μg) was reverse transcribed using a Primescript™ II 1st strand cDNA synthesis kit (Takara), and quantified using a Power SYBR Green PCR Master mix (Applied BioSystems). […]

AMPK, SIRT1 and ACC = assay: Western blot of AMPK, SIRT1 and ACC in FFA-treated HepG2 fatty hepatocyte model; format: cell-based; settings: FFA-treated hepatocytes, 500 μM CQ 24 hours
Protocol: (§4) Free fatty acids (FFA) were prepared from a combination of palmitic acid (PA) and oleic acid (OA). In short, stocks of 100 mM palmitic acid and 100 mM oleic acid dissolved in sodium hydroxide were prepared. These stock solutions were conjugated with 10% BSA (1:9) solution. All stock solutions were stored at −20° C. The cells were seeded and attached to a 6-well plate, then the cells were treated with a mixture of 0.2 mM PA and 0.4 mM OA (1:2) for 24 hours or the same volume of 10% BSA solution for 24 hours. FFA was removed the next day and 500 μM of camphorquinone was added to the mixture and left for 24 hours. Thereafter, the plate was used for protein and oil red staining.
as §2

[2] = test system: SREBP1, FASN, ChREB, CPT1a and CPT1b; assay: qRT-PCR of lipid production and β-oxidation genes in liver of diabetic mouse model; format: in vivo, C57BL/6 mice; settings: CQ-L, 10 mg/kg/day i.p., vs HFD mouse group
Protocol: (§5) 6-week-old male C57BL/6 mice (weight 22±2 g) were purchased from Samtako Bio Korea Co., Ltd. (Osan, Gyeonggi-do, Korea). The mice were maintained at 23 to 25° C. under a 12 h light-dark cycle with free access to food and water in a pathogen-free animal facility center. All animal experiments were approved in accordance with the Chosun University Institutional Animal Care and Use Committee (CIACUC2020-S0009). All animals were fed normal chow pellets (ND, SAM #31, Samtako, Inc.), and went through a period of adjustment for 1 week. During the following week, the animals were randomly classified according to the body weight, and one-third of the animals were classified as normal controls to be fed normal chow pellets throughout the study. On the other hand, the remaining animals were fed a high-fat diet (HFD; 60% Kcal energy as fat) (study diet; #D12492; New Brunswick, NJ 08901 USA) for 2 weeks in order to induce insulin resistance, and the diet was continued until the study ended. Then, STZ (30 mg/kg, i.p.) was administered to the animals for 5 consecutive days from the 4th week to induce T2DM therein. On the other hand, the normal control animals were administered the same volume of citrate buffer instead of the STZ. Blood glucose levels of the animals were measured at the end of week 5, and animals showing a fasting blood glucose level (FBG)≥200 mg/dl were selected for the study. Finally, the animals were divided into the following 4 groups; Group 1: saline-treated normal control mice (Control), Group 2: saline-treated diabetic control mice (HFD), Group 3: camphorquinone (10 mg/kg/day, i.p.)-treated diabetic mice (CQ-L), and Group 4: camphorquinone (30 mg/kg/day, i.p.)-treated diabetic mice (CQ-H). […]
as §3

[3] = test system: HFD+STZ-induced type 2 diabetic mice; assay: Fasting blood glucose in HFD+STZ-induced type 2 diabetic mice; format: in vivo, C57BL/6 mice; settings: 3 weeks, vs HFD+STZ-treated mice
Protocol: as §5, with “study.” for “study. Finally, the animals were divided into the following 4 groups; Group 1: saline-treated normal control mice (Control), Group 2: saline-treated diabetic control mice (HFD), Group 3: camphorquinone (10 mg/kg/day, i.p.)-treated diabetic mice (CQ-L), and Group 4: camphorquinone (30 mg/kg/day, i.p.)-treated diabetic mice (CQ-H).”

FFA-treated HepG2 cells = assay: Oil Red O staining, lipid accumulation in FFA-treated HepG2 cells; format: cell-based; settings: FFA-treated HepG2 cells (0.2 mM PA + 0.4 mM OA 24 hours), then 500 μM CQ 24 hours
Protocol: as §4
Oil Red O stock solution dissolved in isopropyl alcohol was prepared by magnetic stirring at room temperature for 2 hours, and the prepared solution was stored at room temperature. Then, Oil Red O working solution was prepared by mixing 1.5 parts of stock solution and 1 part of water (3:2), and incubated at 4° C. for 10 minutes. The solution was filtered through a 0.02 μm filter and used within 6 hours. […] The stained lipid droplets were dissolved in 2-propanol, and absorbance at 520 nm was measured to quantify lipid accumulation.

[4] = test system: HFD+STZ-induced type 2 diabetic mice; assay: Glucose tolerance test in HFD+STZ-induced type 2 diabetic mice; format: in vivo, C57BL/6 mice; settings: 1.5 g/kg d-glucose i.p., within 2 hours, vs HFD mouse group
Protocol: as §5, with “study.” for “study. Finally, the animals were divided into the following 4 groups; Group 1: saline-treated normal control mice (Control), Group 2: saline-treated diabetic control mice (HFD), Group 3: camphorquinone (10 mg/kg/day, i.p.)-treated diabetic mice (CQ-L), and Group 4: camphorquinone (30 mg/kg/day, i.p.)-treated diabetic mice (CQ-H).”

HepG2 cells = assay: MTT assay, cytotoxicity in HepG2 cells; format: cell-based; settings: 24 hours
Protocol: as §1

LKB1 and ERK = LKB1 and ERK signals in liver tissue of diabetic mouse model; format: in vivo, C57BL/6 mice; settings: vs HFD mouse group
Protocol: as §2
as §5, with “study.” for “study. Finally, the animals were divided into the following 4 groups; Group 1: saline-treated normal control mice (Control), Group 2: saline-treated diabetic control mice (HFD), Group 3: camphorquinone (10 mg/kg/day, i.p.)-treated diabetic mice (CQ-L), and Group 4: camphorquinone (30 mg/kg/day, i.p.)-treated diabetic mice (CQ-H).”

[5] = test system: HFD+STZ-induced type 2 diabetic mice; assay: Body weight and liver weight in HFD+STZ-induced type 2 diabetic mice; format: in vivo, C57BL/6 mice; settings: CQ-L, 10 mg/kg/day i.p., 3 weeks
Protocol: as §5, with “study.” for “study. Finally, the animals were divided into the following 4 groups; Group 1: saline-treated normal control mice (Control), Group 2: saline-treated diabetic control mice (HFD), Group 3: camphorquinone (10 mg/kg/day, i.p.)-treated diabetic mice (CQ-L), and Group 4: camphorquinone (30 mg/kg/day, i.p.)-treated diabetic mice (CQ-H).”

AMPK and SIRT1 = assay: Immunoblotting of AMPK and SIRT1 in liver tissue of diabetic mouse model; format: in vivo, C57BL/6 mice; settings: vs HFD mouse group
Protocol: as §2
as §5, with “study.” for “study. Finally, the animals were divided into the following 4 groups; Group 1: saline-treated normal control mice (Control), Group 2: saline-treated diabetic control mice (HFD), Group 3: camphorquinone (10 mg/kg/day, i.p.)-treated diabetic mice (CQ-L), and Group 4: camphorquinone (30 mg/kg/day, i.p.)-treated diabetic mice (CQ-H).”

LKB1, PGC1a and CRTC2 = assay: Expression of LKB1, PGC1a and CRTC2 in liver of diabetic mouse model; format: in vivo, C57BL/6 mice; settings: CQ treatment vs HFD+STZ-treated HFD mouse group
Protocol: as §5, §3

[6] = test system: lipid synthesis marker (ChREB) and lipid β-oxidation markers (CES1, CES2 and CPT1A); assay: qRT-PCR of lipid metabolism genes in FFA-treated cell model; format: cell-based
[7] = by treatment concentration of CQ

## c1cc(-c2cnn3cc(-c4ccc(OCCN5CCCCC5)cc4)cnc23)ccn1 [Compound C, reference compound]
SIRT1, AMPK and ACC; CC treatment together with CQ
  CQ-induced ACC protein expression: significantly decreased
  CQ-induced AMPK protein expression: significantly decreased
  CQ-induced SIRT1 protein expression: significantly decreased

## CC12CCC(C(=O)C1=O)C2(C)C (stereo not drawn) [camphorquinone]
[1]
  expressions of most inflammatory markers in the liver (IL1α, IL1β, IL6, p53, TNFα and RAGE): significantly decreased
AMPK, SIRT1 and ACC
  activation of ACC: restored
  activation of AMPK: restored
  activation of SIRT1: restored
[2]
  expression of FASN (lipid production) in liver: significantly decreased
  expression of SREBP1 (lipid production) in liver: significantly decreased
  expression of the lipid β-oxidation gene CPTa in liver: significantly increased
[3]; CQ-H, 30 mg/kg/day i.p.
  fasting blood glucose levels: significantly decreased
[3]; CQ-L, 10 mg/kg/day i.p.
  fasting blood glucose levels: significantly decreased
SIRT1, AMPK and ACC; CQ at 500 μM, increase was decreased at the high concentration
  SIRT1, AMPK and ACC expression: significant increase
SIRT1, AMPK and ACC; [7]
  ACC expression: significantly increased in a dose-dependent manner
  AMPK expression: significantly increased in a dose-dependent manner
  SIRT1 expression: significantly increased in a dose-dependent manner
FFA-treated HepG2 cells
  lipid accumulation (Oil red O staining): reduced
[4]; CQ-H, 30 mg/kg/day i.p.
  glucose tolerance: improved
[4]; CQ-L, 10 mg/kg/day i.p.
  glucose tolerance: improved
HepG2 cells; at a high concentration (above 500 μM; 0-2000 μM tested)
  cell viability (MTT assay): decreased
HepG2 cells; up to 500 μM
  cytotoxicity (MTT assay): No cytotoxicity
LKB1 and ERK; CQ-H, 30 mg/kg/day i.p.
  ERK marker in liver tissue: highly expressed
  LKB1 marker in liver tissue: highly expressed
LKB1 and ERK; CQ-L, 10 mg/kg/day i.p.
  ERK marker in liver tissue: highly expressed
  LKB1 marker in liver tissue: highly expressed
[5]
  body weight: gradually decreased
  liver weight: gradually decreased
AMPK and SIRT1; CQ-H, 30 mg/kg/day i.p.
  AMPK in liver tissue: activated
  SIRT1 in liver tissue: activated
AMPK and SIRT1; CQ-L, 10 mg/kg/day i.p.
  AMPK in liver tissue: activated
  SIRT1 in liver tissue: activated
LKB1, PGC1a and CRTC2
  expression of CRTC2 in liver: increased
  expression of LKB1 in liver: increased
  expression of PGC1a in liver: increased
[6]
  expression of lipid β-oxidation marker: increased
  expressions of lipid synthesis markers: decreased
